Test results reported in ChEMBL document CHEMBL1121625, “Crystal structures of calcium channel antagonists: 2,6-dimethyl-3,5-dicarbomethoxy-4-[2-nitro-, 3-cyano-, 4-(dimethylamino)-, and 2,3,4,5,6-pentafluorophenyl]-1,4-dihydropyridine” (1980).

Species on record: Cavia porcellus
Assay: The compound was tested for inhibition of muscarinic responses in guinea pig ileal longitudinal smooth muscle
Format: functional, Muscle tissue

Row | Compound | ID50 [nM]
1 | COC(=O)C1=C(C)NC(C)=C(C(=O)OC)C1c1ccc(N(C)C)cc1 | 50000
2 | COC(=O)C1=C(C)N=C(C)/C(=C(\O)OC)C1c1c(F)c(F)c(F)c(F)c1F (centres undefined) | 0.9
3 | COC(=O)C1=C(C)NC(C)=C(C(=O)OC)C1c1ccccc1[N+](=O)[O-] [NIFEDIPINE] | 5.1
4 | COC(=O)C1=C(C)N=C(C)/C(=C(\O)OC)C1c1cccc(C#N)c1 (centres undefined) | 300
